Measured values as given in patent publication US6864378B2, “Integrated continuous process for anhydro sugar alcohol manufacture” (E. I. du Pont de Nemours and Company, priority 2002, dated 2005).

Assay type: physicochemical
Source text: The reaction product obtained by processes such as the above, contains about 70 to 80% by weight isosorbide and 20 to 30% undesired reaction byproducts. The reaction product thus needs to be subjected to one or more separation steps, such as evaporation, distillation or chromatographic separation, to isolate the isosorbide. Chromatographic separation is disclosed in U.S. Patent Application No. 60/246038 (filed 6, Nov. 2000). Separation by vaporization or distillation is difficult because of the low vapor pressure of isosorbide. […] Evaporation or distillation at temperatures not much higher than about 140° C. is desirable to-minimize product degradation and obtain good purity isosorbide, but the recovery is poor. At higher temperatures, e.g., 170° C., more isosorbide is recovered, but it is of poorer quality.
The sorbitans, dimers, and polymer byproducts are all considerably higher boiling than isosorbide. For example, the vapor pressure of the sorbitans is only about 0.04 mm Hg at 140° C., about one-fiftieth that of isosorbide. The dimers are even less volatile, and the polymers are practically nonvolatile. Therefore, the water vapor volatilizes most of the dianhydro sugar alcohols but not such high boiling byproducts. […]

vapor pressure: 1.75 mm Hg
Structure (SMILES): O[C@@H]1CO[C@H]2[C@@H]1OC[C@@H]2O [isosorbide, 1,4:3,6-dianhydrosorbitol]
